From ChEMBL document CHEMBL3885881, “DrugMatrix”

Organism: Rattus norvegicus
Test: DrugMatrix - Regimen: Daily Repeat
Assay type: toxicity, organism-based, Sprague-Dawley
Parameters: regimen Daily Repeat, gender Male, age 6-8 weeks
Settings: in vivo, po, route oral GAVAGE, vehicle 60 % PEG400; for URIC ACID / ALANINE AMINOTRANSFERASE / ALBUMIN / ALKALINE PHOSPHATASE / ASPARTATE AMINOTRANSFERASE / BLOOD UREA NITROGEN / CARBON DIOXIDE / CHLORIDE / CHOLESTEROL / CREATINE PHOSPHOKINASE / CREATININE / GLUCOSE / LACTATE DEHYDROGENASE / LIPASE / PHOSPHORUS / POTASSIUM / SODIUM / TOTAL BILIRUBIN / TOTAL PROTEIN: tissue Plasma; for ABSOLUTE BASOPHIL / ABSOLUTE EOSINOPHIL / ABSOLUTE LYMPHOCYTE / ABSOLUTE MONOCYTE / ABSOLUTE SEGMENTED NEUTROPHIL / BASOPHIL / EOSINOPHIL / ERYTHROCYTE COUNT / HEMATOCRIT / HEMOGLOBIN / LEUKOCYTE COUNT / LYMPHOCYTE / MEAN CORPUSCULAR HEMOGLOBIN / MEAN CORPUSCULAR HEMOGLOBIN CONCENTRATION / MEAN CORPUSCULAR VOLUME / MONOCYTE / NEUTROPHIL / NUCLEATED RED BLOOD CELLS / PLATELET COUNT: tissue Blood
[1] = 0.001 mg/kg, 120 h, dose level Low, time 5 day
[2] = 0.1 mg/kg, 72 h, dose level High, time 3 day
[3] = 0.1 mg/kg, 120 h, dose level High, time 5 day

N[C@@H](Cc1cc(I)c(Oc2ccc(O)c(I)c2)c(I)c1)C(=O)O [LIOTHYRONINE]
URIC ACID (0.001 mg/kg, 72 h, dose level Low, time 3 day): 1.37 mg/dL
ABSOLUTE BASOPHIL [1]: 0 CELLS/uL
ABSOLUTE EOSINOPHIL [1]: 0 CELLS/uL
ABSOLUTE LYMPHOCYTE [1]: 5590 CELLS/uL
ABSOLUTE MONOCYTE [1]: 0 CELLS/uL
ABSOLUTE SEGMENTED NEUTROPHIL [1]: 543.33 CELLS/uL
BASOPHIL [1]: 0%
EOSINOPHIL [1]: 0%
ERYTHROCYTE COUNT [1]: 5.59 x10E6/uL
HEMATOCRIT [1]: 33.3%
HEMOGLOBIN [1]: 12.43 G/DL
LEUKOCYTE COUNT [1]: 6.13 x10E3/uL
LYMPHOCYTE [1]: 91%
MEAN CORPUSCULAR HEMOGLOBIN [1]: 22.27 pg
MEAN CORPUSCULAR HEMOGLOBIN CONCENTRATION [1]: 37.37 G/DL
MEAN CORPUSCULAR VOLUME [1]: 59.57 fL
MONOCYTE [1]: 0%
NEUTROPHIL [1]: 9%
NUCLEATED RED BLOOD CELLS [1]: 0.67 /100WBC
PLATELET COUNT [1]: 972.33 x10E3/uL
ALANINE AMINOTRANSFERASE [1]: 52.67 u/L
ALBUMIN [1]: 4.57 G/DL
ALKALINE PHOSPHATASE [1]: 421 u/L
ASPARTATE AMINOTRANSFERASE [1]: 80.33 u/L
BLOOD UREA NITROGEN [1]: 15.33 mg/dL
CARBON DIOXIDE [1]: 31 mmol/L
CHLORIDE [1]: 100.33 MEQ/L
CHOLESTEROL [1]: 86 mg/dL
CREATINE PHOSPHOKINASE [1]: 257.67 u/L
CREATININE [1]: 0.19 mg/dL
GLUCOSE [1]: 174.33 mg/dL
LACTATE DEHYDROGENASE [1]: 98.33 u/L
LIPASE [1]: 8.33 u/L
PHOSPHORUS [1]: 12.67 mg/dL
POTASSIUM [1]: 6.56 MEQ/L
SODIUM [1]: 144.9 MEQ/L
TOTAL BILIRUBIN [1]: 0.1 mg/dL
URIC ACID [1]: 2.23 mg/dL
ABSOLUTE BASOPHIL [2]: 0 CELLS/uL
ABSOLUTE EOSINOPHIL [2]: 0 CELLS/uL
ABSOLUTE LYMPHOCYTE [2]: 13461.67 CELLS/uL
ABSOLUTE MONOCYTE [2]: 261.67 CELLS/uL
ABSOLUTE SEGMENTED NEUTROPHIL [2]: 1443.33 CELLS/uL
BASOPHIL [2]: 0%
EOSINOPHIL [2]: 0%
ERYTHROCYTE COUNT [2]: 6.02 x10E6/uL
HEMATOCRIT [2]: 37%
HEMOGLOBIN [2]: 14.37 G/DL
LEUKOCYTE COUNT [2]: 15.17 x10E3/uL
LYMPHOCYTE [2]: 89.33%
MEAN CORPUSCULAR HEMOGLOBIN [2]: 23.9 pg
MEAN CORPUSCULAR HEMOGLOBIN CONCENTRATION [2]: 38.8 G/DL
MEAN CORPUSCULAR VOLUME [2]: 61.5 fL
MONOCYTE [2]: 1.67%
NEUTROPHIL [2]: 9%
NUCLEATED RED BLOOD CELLS [2]: 0 /100WBC
PLATELET COUNT [2]: 889 x10E3/uL
ALANINE AMINOTRANSFERASE [2]: 70.67 u/L
ALBUMIN [2]: 4.1 G/DL
ALKALINE PHOSPHATASE [2]: 525 u/L
ASPARTATE AMINOTRANSFERASE [2]: 112 u/L
BLOOD UREA NITROGEN [2]: 14.67 mg/dL
CARBON DIOXIDE [2]: 26.67 mmol/L
CHLORIDE [2]: 104 MEQ/L
CHOLESTEROL [2]: 88 mg/dL
CREATINE PHOSPHOKINASE [2]: 402.67 u/L
CREATININE [2]: 0.19 mg/dL
GLUCOSE [2]: 148.67 mg/dL
LACTATE DEHYDROGENASE [2]: 156.67 u/L
LIPASE [2]: 14 u/L
PHOSPHORUS [2]: 15.67 mg/dL
POTASSIUM [2]: 7.38 MEQ/L
SODIUM [2]: 147 MEQ/L
TOTAL BILIRUBIN [2]: 0.13 mg/dL
TOTAL PROTEIN [2]: 5.67 G/DL
URIC ACID [2]: 2.47 mg/dL
ABSOLUTE BASOPHIL [3]: 0 CELLS/uL
ABSOLUTE EOSINOPHIL [3]: 0 CELLS/uL
ABSOLUTE LYMPHOCYTE [3]: 3351.33 CELLS/uL
ABSOLUTE MONOCYTE [3]: 14.67 CELLS/uL
ABSOLUTE SEGMENTED NEUTROPHIL [3]: 800.67 CELLS/uL
BASOPHIL [3]: 0%
EOSINOPHIL [3]: 0%
ERYTHROCYTE COUNT [3]: 5.59 x10E6/uL
HEMATOCRIT [3]: 34.2%
HEMOGLOBIN [3]: 12.77 G/DL
LEUKOCYTE COUNT [3]: 4.17 x10E3/uL
LYMPHOCYTE [3]: 80.33%
MEAN CORPUSCULAR HEMOGLOBIN [3]: 22.83 pg
MEAN CORPUSCULAR HEMOGLOBIN CONCENTRATION [3]: 37.33 G/DL
MEAN CORPUSCULAR VOLUME [3]: 61.17 fL
MONOCYTE [3]: 0.33%
NEUTROPHIL [3]: 19.33%
NUCLEATED RED BLOOD CELLS [3]: 0.33 /100WBC
PLATELET COUNT [3]: 792.67 x10E3/uL
ALANINE AMINOTRANSFERASE [3]: 69.67 u/L
ALBUMIN [3]: 4.13 G/DL
ALKALINE PHOSPHATASE [3]: 576 u/L
ASPARTATE AMINOTRANSFERASE [3]: 110 u/L
BLOOD UREA NITROGEN [3]: 12.67 mg/dL
CARBON DIOXIDE [3]: 32.67 mmol/L
CHLORIDE [3]: 103.33 MEQ/L
CHOLESTEROL [3]: 94.67 mg/dL
CREATINE PHOSPHOKINASE [3]: 218 u/L
CREATININE [3]: 0.12 mg/dL
GLUCOSE [3]: 132.67 mg/dL
LACTATE DEHYDROGENASE [3]: 105.33 u/L
LIPASE [3]: 12.33 u/L
PHOSPHORUS [3]: 13.73 mg/dL
POTASSIUM [3]: 7.47 MEQ/L
SODIUM [3]: 149.43 MEQ/L
TOTAL BILIRUBIN [3]: 0.13 mg/dL
TOTAL PROTEIN [3]: 5.8 G/DL
URIC ACID [3]: 2.43 mg/dL
